Experimental data published in paper PMC9207808 (ACS Chemical Biology, 2022).
Residues, ends and D or L forms follow the SMILES beside them.

Assays:
[1] = system: DocSTm; assay: Differential scanning fluorimetry (thermal stabilisation of Doc); type: binding, S. Typhimurium; conditions: for melting temperature shift ΔTm: DSF, DocSTm 5 μM, analyte 50 μM, Tm with analyte minus Tm of free DocSTm (42.9 ± 0.9 °C), SYPRO Orange, 20 mM K2HPO4, 50 mM (NH4)2SO4, pH 8.0, triplicate; for Average Tm / Tm: DocSTm 5 µM + 50 µM binder; for Average Tm: average of 3 replicates
Description: Experiments were performed in a Mx3005P qPCR System (Agilent) collecting fluorescence data with a temperature ramp of 25 to 95 °C. Samples were prepared in a buffer containing 20 mM K2HPO4 and 50 mM (NH4)2SO4 at pH 8.0. The SYPRO Orange dye (Sigma-Aldrich, 5000× stock in DMSO) was used to monitor protein denaturation and was diluted to a final concentration of 3×. For binding experiments, the final concentration of Doc was 5 μM. Each condition was performed in triplicate (ESI section 4) and the melting curves were plotted using GraphPad Prism 5 (GraphPad Software, U.S.A.). The melting temperatures were obtained by fitting the sigmoidal section of the curves to a Boltzmann sigmoid function.

[2] = molecular target: DocSTm; assay: Surface plasmon resonance binding to immobilised Doc; parameters: species or system S. Typhimurium; conditions: for koff × 10^-6 / kon × 10^6: 1:1 kinetic fit, mean ± SD of at least 3 replicates; for kon × 10^6: single-cycle kinetics (multicycle for PhdSTm1-73); for Half-life of the complex: t1/2 = ln2 / koff
Description: Experiments were performed in a Biacore S200 (Cytiva) with a Series S sensor chip NTA (Cytiva). The data was analyzed using the Biacore Evaluation Software (Cytiva) and curves were plotted using GraphPad Prism 5 (GraphPad Software, U.S.A.). All experiments were performed at 22 °C with a running buffer containing 10 mM HEPES, 500 mM NaCl, 50 μM EDTA, and 0.005% (v/v) TWEEN 20 at pH 8.0. The surface was conditioned following the standard manufacturer’s guidelines and protein immobilization was performed with a 30–60 s pulse (flow rate of 5 μL/min) of Doc (150 nM) in running buffer. […] Surface regeneration was performed with a 1 min pulse of 0.5 M imidazole followed by a 1 min pulse of 0.35 M of EDTA at pH 8.0.
Binding to Doc was performed using a multicycle kinetics (MCK) setup for peptides 7, 10, and 14, while the remaining samples were tested using a single-cycle kinetics (SCK) setup. The surface was fully regenerated in between each analyte in both cases. In the MCK experiments, increasing concentrations of each analyte were injected with an 80 s pulse (30 μL/min) and dissociation times varied depending on the time required to fully dissociate the complex. The double-referenced sensorgrams (raw data subtracted from a blank injection and reference surface responses) were analyzed using a kinetic and/or a steady-state 1:1 binding model. In the SCK experiments, typically six concentrations of each analyte were sequentially injected with 80 s pulses (30 μL/min), and dissociation times varied depending on the time required to dissociate at least 5% of the complex. The double-referenced sensorgrams were fitted using a kinetic 1:1 binding model.
At least three independent replicates were measured for each analyte (ESI section 5). When a steady-state fit was applied, the reported Kd and its uncertainty correspond, respectively, to the average and standard deviations of the Kd obtained in each measurement. When a kinetic fit was applied, the reported rate constants (kon and koff) and their uncertainties correspond, respectively, to the average and standard deviations of the rate constants obtained in each measurement. In this case, reported Kd were calculated using the equation below, and the standard deviation of the rate constants was propagated. [drawing 1]

[3] = system: DocSTm; assay: Dot blot phosphorylation assay (EF-Tu phosphorylation by Doc); type: biochemical, S. Typhimurium; conditions: α-pThr, DocSTm 1 μM, EF-TuSTm 3 μM, ATP 1 mM, inhibitor 10 μM to 5 nM (3-fold dilutions), 16 h at RT
Description: Samples were prepared to a final volume of 10 μL. […] Samples were incubated for 16 h at RT and subsequently spotted on a nitrocellulose membrane. Phosphorylated EF-Tu was detected by immunodecoration using a rabbit monoclonal antiphosphothreonine antibody (Abcam, ab218195) at 1:2000 dilution (1 h at 4 °C), followed by incubation with a goat antirabbit IgG (H+L) HRP conjugate antibody (Advansta) at 1:10 000 dilution (1 h at RT). Chemiluminescence was developed using the HRP Luminata kit (Merck, WBLUR0100) and captured by an ImageQuant LAS4000 Western blot imaging system (Cytiva).

[4] = SPR, kinetic fit, KD calculated from mean koff and kon, SD propagated, 22 °C, pH 8.0

Structure (SMILES)	melting temperature shift ΔTm [1]	Average Tm [1]	Tm ([1]; replicate 1)	Tm ([1]; replicate 2)	Tm ([1]; replicate 3)	Kd ([2]; SPR kinetic fit, replicate 1)	Kd ([2]; SPR kinetic fit, replicate 2)	Kd ([2]; SPR kinetic fit, replicate 3)	koff × 10^-6 ([2]; SPR, 22 °C, pH 8.0)	kon × 10^6 ([2]; SPR, 22 °C, pH 8.0)	Kd [2, 4]	Half-life of the complex [2]	inhibition of EF-TuSTm phosphorylation by DocSTm (in words) [3]	Kd ([2]; SPR kinetic fit, replicate 4)
CC[C@H](C)[C@H](NC(=O)[C@H](C)NC(=O)[C@H](C)NC(=O)[C@H](Cc1ccccc1)NC(=O)[C@H](CCC(=O)O)NC(=O)[C@H](CC(=O)O)NC(=O)[C@H](CC(=O)O)NC(=O)[C@H](CCSC)NC(=O)[C@H](Cc1c[nH]c2ccccc12)NC(C)=O)C(=O)N[C@@H](CCSC)C(=O)N[C@@H](C)C(=O)N[C@H](C(=O)N[C@@H](Cc1c[nH]cn1)C(=O)NCC(=O)N[C@@H](CC(N)=O)C(=O)N[C@@H](C)C(=O)N[C@@H](CC(C)C)C(=O)N[C@@H](CCCNC(=N)N)C(=O)N[C@@H](CCC(=O)O)C(=O)N[C@@H](CC(C)C)C(=O)N[C@@H](C)C(=O)N[C@@H](CC(=O)O)C(=O)N[C@@H](CCCCN)C(=O)O)C(C)C [peptide 13] (Ac-WMDDEFAAIMAVHGNALRELADK-OH; C-terminus assumed)	27.7 ± 0.9 °C	70.6 ± 0.2 °C	70.8 °C	70.4 °C	70.6 °C	0.0475 nM	0.0451 nM	0.0352 nM	112 ± 38 ×10^-6 s-1	2.705 ± 1.041 ×10^6 M-1 s-1	0.042 ± 0.021 nM	1.7 ± 0.6 h	inhibited DocSTm at similar concentrations to peptide 1	
CC[C@H](C)[C@H](NC(=O)[C@H](C)NC(=O)[C@H](C)NC(=O)[C@H](Cc1ccccc1)NC(=O)[C@H](CCC(=O)O)NC(=O)[C@H](CC(=O)O)NC(=O)[C@H](CC(=O)O)NC(=O)[C@H](CCSC)NC(=O)[C@H](Cc1c[nH]c2ccccc12)NC(C)=O)C(=O)N[C@@H](CCSC)C(=O)N[C@@H](C)C(=O)N[C@H](C(=O)N[C@@H](Cc1c[nH]cn1)C(=O)NCC(=O)N[C@@H](CC(N)=O)C(=O)N[C@@H](CCC(=O)O)C(=O)N[C@@H](CC(C)C)C(=O)N[C@@H](C)C(=O)N[C@@H](CCC(=O)O)C(=O)N[C@@H](CC(C)C)C(=O)N[C@@H](C)C(=O)N[C@@H](CC(=O)O)C(=O)N[C@@H](CCCCN)C(=O)O)C(C)C [peptide 15] (Ac-WMDDEFAAIMAVHGNELAELADK-OH; C-terminus assumed)	27.7 ± 0.9 °C	70.6 ± 0.1 °C	70.6 °C	70.7 °C	70.4 °C	0.124 nM	0.106 nM	0.112 nM	185 ± 52 ×10^-6 s-1	1.602 ± 0.332 ×10^6 M-1 s-1	0.115 ± 0.04 nM	1.0 ± 0.3 h		
CC[C@H](C)[C@H](NC(=O)[C@H](C)NC(=O)[C@H](C)NC(=O)[C@H](Cc1ccccc1)NC(=O)[C@H](CCC(=O)O)NC(=O)[C@H](CC(=O)O)NC(=O)[C@H](CC(=O)O)NC(=O)[C@H](CCSC)NC(=O)[C@H](Cc1c[nH]c2ccccc12)NC(C)=O)C(=O)N[C@@H](CCSC)C(=O)N[C@@H](C)C(=O)N[C@H](C(=O)N[C@@H](Cc1c[nH]cn1)C(=O)NCC(=O)N[C@@H](CC(N)=O)C(=O)N[C@@H](CCC(=O)O)C(=O)N[C@@H](CC(C)C)C(=O)N[C@@H](CCCNC(=N)N)C(=O)N[C@@H](C)C(=O)N[C@@H](CC(C)C)C(=O)N[C@@H](C)C(=O)N[C@@H](CC(=O)O)C(=O)N[C@@H](CCCCN)C(=O)O)C(C)C [peptide 16] (Ac-WMDDEFAAIMAVHGNELRALADK-OH; C-terminus assumed)	30.7 ± 0.9 °C	73.6 ± 0.2 °C	73.5 °C	73.5 °C	73.9 °C	0.0687 nM	0.0703 nM	0.0518 nM	136 ± 41 ×10^-6 s-1	2.101 ± 0.333 ×10^6 M-1 s-1	0.065 ± 0.022 nM	1.4 ± 0.4 h		
CC[C@H](C)[C@H](NC(=O)[C@H](C)NC(=O)[C@H](C)NC(=O)[C@H](Cc1ccccc1)NC(=O)[C@H](CCC(=O)O)NC(=O)[C@H](CC(=O)O)NC(=O)[C@H](CC(=O)O)NC(=O)[C@H](CCSC)NC(=O)[C@H](Cc1c[nH]c2ccccc12)NC(C)=O)C(=O)N[C@@H](CCSC)C(=O)N[C@@H](C)C(=O)N[C@H](C(=O)N[C@@H](Cc1c[nH]cn1)C(=O)NCC(=O)N[C@@H](CC(N)=O)C(=O)N[C@@H](CCC(=O)O)C(=O)N[C@@H](CC(C)C)C(=O)N[C@@H](CCCNC(=N)N)C(=O)N[C@@H](CCC(=O)O)C(=O)N[C@@H](CC(C)C)C(=O)N[C@@H](C)C(=O)N[C@@H](C)C(=O)N[C@@H](CCCCN)C(=O)O)C(C)C [peptide 18] (Ac-WMDDEFAAIMAVHGNELRELAAK-OH; C-terminus assumed)	28.0 ± 0.9 °C	70.9 ± 0.3 °C	71.1 °C	71.0 °C	70.6 °C	0.0532 nM	0.0189 nM	0.0385 nM	84 ± 33 ×10^-6 s-1	2.508 ± 0.964 ×10^6 M-1 s-1	0.033 ± 0.018 nM	2.3 ± 0.9 h		
CC[C@H](C)[C@H](NC(=O)[C@H](C)NC(=O)[C@H](C)NC(=O)[C@H](Cc1ccccc1)NC(=O)[C@H](CCC(=O)O)NC(=O)[C@H](CC(=O)O)NC(=O)[C@H](CC(=O)O)NC(=O)[C@H](CCSC)NC(=O)[C@H](Cc1c[nH]c2ccccc12)NC(C)=O)C(=O)N[C@@H](CCSC)C(=O)N[C@@H](C)C(=O)N[C@H](C(=O)N[C@@H](Cc1c[nH]cn1)C(=O)NCC(=O)N[C@@H](CC(N)=O)C(=O)N[C@@H](CCC(=O)O)C(=O)N[C@@H](CC(C)C)C(=O)N[C@@H](CCCNC(=N)N)C(=O)N[C@@H](CCC(=O)O)C(=O)N[C@@H](CC(C)C)C(=O)N[C@@H](C)C(=O)N[C@@H](CC(=O)O)C(=O)N[C@@H](C)C(=O)O)C(C)C [peptide 19] (Ac-WMDDEFAAIMAVHGNELRELADA-OH; C-terminus assumed)	25.2 ± 1.1 °C	68.0 ± 0.6 °C	68.8 °C	67.6 °C	67.7 °C	0.101 nM	0.0634 nM	0.1 nM	126 ± 11 ×10^-6 s-1	1.441 ± 0.462 ×10^6 M-1 s-1	0.087 ± 0.029 nM	1.5 ± 0.1 h	inhibited DocSTm at similar concentrations to peptide 1	0.103 nM
